Where two headings read alike, the source gives them in different places.
Columns and labels:
[1] = biological target: T1, Olfr31 (Mus musculus, UniProt Q3KPA7); experiment: dual-luciferase (cAMP/CREB reporter) ligand screen, Olfr31 in HEK293T cells; assay type: cell-based; conditions: chemicals tested individually, screened at 500uM (* also at 100uM)
T1 construct: expressed in transfected cells; host or cells: HEK293T, co-transfected with RTP1S
T1 sequence (Q3KPA7 1-317): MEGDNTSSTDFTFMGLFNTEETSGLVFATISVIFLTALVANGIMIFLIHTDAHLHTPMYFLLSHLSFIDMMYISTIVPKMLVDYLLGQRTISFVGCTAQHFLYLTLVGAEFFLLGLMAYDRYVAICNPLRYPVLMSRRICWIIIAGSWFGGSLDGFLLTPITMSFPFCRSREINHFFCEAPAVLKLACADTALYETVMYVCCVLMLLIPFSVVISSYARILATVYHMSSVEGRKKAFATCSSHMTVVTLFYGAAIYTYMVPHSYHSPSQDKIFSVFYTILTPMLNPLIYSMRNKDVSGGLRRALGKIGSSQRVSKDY

[2] = biological target: T2, Olfr691 (Mus musculus, UniProt Q8VGW5); experiment: dual-luciferase (cAMP/CREB reporter) ligand screen, Olfr691 in HEK293T cells; assay type: cell-based; conditions: for Olfr691 response in dual-luciferase assay: chemicals tested individually, screened at 500uM (* also at 100uM); for Relative response (% of 4-pentenoate response) at 500 µM: HEK-293T, 4 h
T2 construct: Lucy (N); expressed in transfected cells; host or cells: HEK293T, co-transfected with RTP1S
T2 sequence (Q8VGW5 1-322): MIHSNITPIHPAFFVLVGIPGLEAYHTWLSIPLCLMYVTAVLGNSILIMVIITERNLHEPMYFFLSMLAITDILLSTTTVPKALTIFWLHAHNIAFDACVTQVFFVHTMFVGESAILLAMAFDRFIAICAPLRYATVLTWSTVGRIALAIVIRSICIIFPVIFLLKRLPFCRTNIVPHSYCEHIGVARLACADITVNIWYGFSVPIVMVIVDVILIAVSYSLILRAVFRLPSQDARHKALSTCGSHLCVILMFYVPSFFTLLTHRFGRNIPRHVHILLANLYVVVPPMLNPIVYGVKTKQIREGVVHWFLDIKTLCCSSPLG

[3] = test system: Olfr99; experiment: dual-luciferase (cAMP/CREB reporter) ligand screen, Olfr99 in HEK293T cells; assay type: cell-based, mouse; set-up: key: ‘+’ or ‘–‘ in each column indicates if the olfactory receptor responded or had no effect to that specific chemical; -: ‘+’ or ‘–‘ in each column indicates if the olfactory receptor responded or had no effect to that specific chemical; conditions: chemicals tested individually, screened at 500uM (* also at 100uM)
[4] = test system: Olfr545; experiment: dual-luciferase (cAMP/CREB reporter) ligand screen, Olfr545 in HEK293T cells; assay type: cell-based, mouse; set-up: key to Olfr545 response in dual-luciferase assay: ‘+’ or ‘–‘ in each column indicates if the olfactory receptor responded or had no effect to that specific chemical; -: ‘+’ or ‘–‘ in each column indicates if the olfactory receptor responded or had no effect to that specific chemical; conditions: for Olfr545 response in dual-luciferase assay: chemicals tested individually, screened at 500uM (* also at 100uM)
[5] = test system: Olfr693; experiment: dual-luciferase (cAMP/CREB reporter) ligand screen, Olfr693 in HEK293T cells; assay type: cell-based, mouse; set-up: key: ‘+’ or ‘–‘ in each column indicates if the olfactory receptor responded or had no effect to that specific chemical; -: ‘+’ or ‘–‘ in each column indicates if the olfactory receptor responded or had no effect to that specific chemical; conditions: chemicals tested individually, screened at 500uM (* also at 100uM)
[6] = 0.5 mM ligand, normalized to the response of Olfr691 to the strongest ligand, 4-pentenoate

| Molecule | Olfr31 response in dual-luciferase assay [1] | Olfr691 response in dual-luciferase assay [2] | Olfr99 response in dual-luciferase assay [3] | Olfr545 response in dual-luciferase assay [4] | Olfr693 response in dual-luciferase assay [5] | Olfr691 response (in words) [2] | Relative response (% of 4-pentenoate response) at 500 µM [2, 6] [%] | Olfr545 response (in words) ([4]; luciferase assay) | Relative response at 0.5mM [2, 6] | Olfr691 response (in words) ([2]; luciferase assay, co-expressed with RTP1S) |
| --- | --- | --- | --- | --- | --- | --- | --- | --- | --- | --- |
| CC(C)[C@H](N)C(=O)O [l-valine] | - | - | - | - | - |  |  |  |  |  |
| O=C(O)CC(=O)O [Malonate] | - | - | - | - | - |  |  |  |  |  |
| SCCCCCCS [1,6-hexanedithiol] | - | - | - | - | - |  |  |  |  |  |
| CCCCCC(=O)CC [3-octanone] | - | - | - | - | - |  |  |  |  |  |
| C=C(C)C1CC=C(C)CC1 (single isomer, unassigned; (+)) [(+)-Limonene] | - | - | - | - | - |  |  |  |  |  |
| O=CO [formate] |  |  |  |  |  | not including |  |  |  |  |
| SCCS [1,2-ethanedithiol] | - | - | - | - | - |  |  |  |  |  |
| O=C/C=C/c1ccccc1 [cinnamaldehyde] | - | - | - | - | - |  |  |  |  |  |
| COc1ccccc1 [Anisole] | - | - | - | - | - |  |  |  |  |  |
| CC(=O)C=O [Pyruvaldehyde] | - | - | - | - | - |  |  |  |  |  |
| CC(=O)c1c(C)c([N+](=O)[O-])c(C(C)(C)C)c([N+](=O)[O-])c1C [musk ketone] | - | - | - | - | - |  |  |  |  |  |
| Myrtenal | - | - | - | - | - |  |  |  |  |  |
| CC(C)C=O [Isobutyraldehyde] | - | - | - | - | - |  |  |  |  |  |
| O=C(O)c1ccccc1 [benzoate] | - | + | - | - | - | induced Olfr691 responses | 34 ± 1 |  |  |  |
| CC(C)(C)C1CCC(O)CC1 (stereo not drawn) [4-tert-butylcyclohexanol] | - | - | - | - | - |  |  |  |  |  |
| C=CC(C)(O)CCC=C(C)C (stereo not drawn) [linalool] | - | - | - | - | - |  |  |  |  |  |

| Molecule | Olfr31 response in dual-luciferase assay [1] | Olfr691 response in dual-luciferase assay [2] | Olfr99 response in dual-luciferase assay [3] | Olfr545 response in dual-luciferase assay [4] | Olfr693 response in dual-luciferase assay [5] | Olfr691 response (in words) [2] | Relative response (% of 4-pentenoate response) at 500 µM [2, 6] [%] | Olfr545 response (in words) ([4]; luciferase assay) | Relative response at 0.5mM [2, 6] | Olfr691 response (in words) ([2]; luciferase assay, co-expressed with RTP1S) |
| --- | --- | --- | --- | --- | --- | --- | --- | --- | --- | --- |
| Cc1ccco1 [2-methylfuran] | - | - | - | - | - |  |  |  |  |  |
| O=C(O)CCCCCCCCC(=O)O [sebacic acid] | - | - | - | - | - |  |  | did not induce a response |  |  |
| C/C=C/C(=O)O [crotonic acid] | - | + | - | - | - |  | 39 ± 3 |  |  |  |
| CC12CCC(CC1=O)C2(C)C (stereo not drawn) [Camphor] | - | - | - | - | - |  |  |  |  |  |
| CC(C)C(=O)OCCc1ccccc1 [phenyl ethyl isobutyrate] | - | - | - | - | - |  |  |  |  |  |
| SCCCCS [1,4-butanedithiol] | - | - | - | - | - |  |  |  |  |  |
| CCOC(=O)c1ccccc1 [ethyl benzoate] | - | - | - | - | - |  |  |  |  |  |
| O=C(O)C(=O)O [Oxalate] | - | - | - | - | - |  |  |  |  |  |
| CCC(=O)O [propionate] | - | + | - | - | - |  |  |  | 42 ± 3.1 | responds |
| CCCCC/C=C/CO [trans-2-octen-1-ol] | - | - | - | - | - |  |  |  |  |  |
| O=C1Cc2ccccc2O1 [2-cumaranon] | - | - | - | - | - |  |  |  |  |  |
| O=Cc1ccccc1 [benzaldehyde] | - | - | - | - | - |  |  |  |  |  |
| C=CCc1ccc(O)c(OC)c1 [eugenol] | - | - | - | - | - |  |  |  |  |  |
| CC(O)C(C)O (stereo not drawn) [2,3-butanediol] | - | - | - | - | - |  |  |  |  |  |
| C[C@]12CC[C@@H]3c4ccc(O)cc4CC[C@H]3[C@@H]1CC[C@@H]2O [estradiol, reference compound] |  | - | - | - | - |  |  |  |  |  |
| CC(C)CC(=O)O [isovaleric acid] |  |  | - | - | - |  |  |  |  |  |

— PMC4207771, “Identification and Characterization of Novel Renal Sensory Receptors” (PLoS ONE, 2014)
